Measurements from patent US12410192B2, “Compound for inhibiting and inducing degradation of EGFR kinase” (BEIJING TIDE PHARMACEUTICAL CO., LTD., priority 2019, dated 2025).
Read-outs that look alike come from different tables or passages of the source.

Legend:
EGFR^L858R/T790M/C797S [1] = molecular target: T1, EGFR^L858R/T790M/C797S (Homo sapiens (Human), UniProt P00533, C797S/L858R/T790M); test: Assay of inhibitory activity on EGFR (HTRF kinase assay); type: biochemical; settings: mutant EGFR kinase
Method: Formula of inhibition rate (%): […]
The nonlinear regression curve (dose response-variable slope) between the value of inhibition rate (%) and the logarithm of compound concentration was fitted with graphpad prism 8.0, the effect dose curve of compound was drawn, and IC50 value was calculated.

[2] = system: Ba/F3 (EGFR^Del19/T790M/C797S) cells; test: Assay of activity on Ba/F3 (EGFR^Del19/T790M/C797S) cells (CTG, 72 h); type: cell-based
Method: (§1) 30 nL of the compound dilution was added to a 384-well plate by Echo (Labcyte, Echo550). […] 2. Data Analysis
(§2) The percent inhibition rate (% inhibition) was calculated by the following formula
(§3) [formula] • LUMcmpd: Luminescence value of assay compound. • LUMpositive: Average LUM value of positive drug (Brigatinib) with a concentration of 10 μM. • LUMvehicle: Average LUM value of negative control group without drug treatment.
(§4) The nonlinear regression curve (dose response-variable slope) between the value of inhibition rate (%) and the logarithm of compound concentration was fitted with graphpad prism 8.0, the effect dose curve of compound was drawn, and the IC50 value was calculated. Y=Bottom+(Top−Bottom)/(1+10^((LogIC50−X)*HillSlope)) • X-axis: logarithm of compound concentration; Y axis: inhibition rate (% inhibition). 3.

[3] = system: Ba/F3 (EGFR^L858R/T790M/C797S) cells; test: Assay of activity on Ba/F3 (EGFR^L858R/T790M/C797S) cells (CTG, 72 h); type: cell-based
Method: as §1, §2, §3, §4

EGFR^L858R/T790M/C797S [4] = molecular target: T1, EGFR^L858R/T790M/C797S; test: Assay of activity of compounds for inducing EGFR^L858R/T790M/C797S protein degradation; type: cell-based; settings: Ba/F3 (EGFR^L858R/T790M/C797S) cells
Method: In order to further explain the reason why the compounds of the present disclosure have inhibitory activity on Ba/F3 (EGFR^L858R/T790M/C797S) cells, representative compounds D3 was selected to study the mechanism of action of the compounds, and observe their effects on EGFR^L858R/T790M/C797S protein levels.
• Ba/F3 (EGFR^L858R/T790M/C797S) cells were cultured according to the culture conditions recommended by ATCC, and analyzed by index. • Complete medium: 1640 medium, 10% FBS, 1× glutamine, 1× penicillin-streptomycin. • Culture conditions: incubated at 37° C., 95% air, 5% CO2 incubator. (2) Compound Stock Solution:
10 mM stock solution in DMSO, stored at −20° C.
• The cells in the cell culture bottle were collected, and the cells with viability of >90% can be used in the assay. Cells were seeded in a 96-well plate with 40 μL cells, 1*10^5 cells/well. […] (6) Detection: • 1) 1 μg/mL of EGF activated cells were treated for 10 min; • 2) After the compound treatment, lysis buffer was added to lyse cells; 10 μL of cell lysate was transferred to a 384-well plate; in addition, 5 μL of acceptor mix was added to the 384-well plate, and shaken on a shaker for 1-2 min; • 3) 5 μL of donor mix was added to each well; the 384-well plate was sealed, shaken on a shaker for 1-2 min, left in the dark at room temperature overnight, and read with an enzyme labeling instrument. […]

IC50 (EGFR^L858R/T790M/C797S [1]) [nM]	IC50 ([2]; Ba/F3 EGFR-Del19/T790M/C797S) [nM]	IC50 ([3]; Mus musculus, BaF3) [nM]	effect on EGFR^L858R/T790M/C797S protein level (in words) (EGFR^L858R/T790M/C797S [4]; 6 h, dose-dependent)	DC50 (EGFR^L858R/T790M/C797S [4]; 6 h treatment, 0.01 nM to 1000 nM, read-out: DC50 (EGFR^L858R/T790M/C797S protein level)) [nM]	Compound	IC50 [2] [nM]	IC50 [3] [nM]
35.9	10.7	11.6	–	–	Cc1cc2cc(n1)-c1cnn(C)c1OCCC[C@@H](C)CN1/C(=N/C2=O)Nc2ccc(CN3CCN(CCCCCCCc4cccc5c4CN(C4CCC(=O)NC4=O)C5=O)CC3)cc21 (stereo partly drawn) [Compound D5, 3-(1-oxo-4-(7-(4-(((R,E)-1^1,2^6,7-trimethyl-3-oxo-5^2,5^3-dihydro-1^1H,5^1H-11-oxa-4-aza-5 (2,1)-benzo[d]imidazole-2 (2,4)-pyridine-1 (4,5)-pyrazolecyclododecan-5^6-yl)methyl)piperazin-1-yl)heptyl)isoindol-2-yl)piperidine-2,6-dione]	–	–
–	–	–	–	–	3-(1-oxo-4-(5-(4-(((R,E)-1^1,2^6,7-trimethyl-3-oxo-5^2,5^3-dihydro-1^1H,5^1H-11-oxa-4-aza-5 (2,1)-benzo[d]imidazole-2 (2,4)-pyridine-1 (4,5)-pyrazolecyclododecan-5^6-yl)methyl)piperazin-1-yl) pent-1-yn-1-yl)isoindol-2-yl)piperidine-2,6-dione [Compound D2]	3.89	3.96
1.09	3.13	2.88	significantly reduces	9.28	Cc1cc2cc(n1)-c1cnn(C)c1OCCC[C@@H](C)CN1/C(=N/C2=O)Nc2ccc(CN3CCN(CCCCCc4cccc5c4CN(C4CCC(=O)NC4=O)C5=O)CC3)cc21 (stereo partly drawn) [Compound D3, 3-(1-oxo-4-(5-(4-(((R,E)-1^1,2^6,7-trimethyl-3-oxo-5^2,5^3-dihydro-1^1H,5^1H-11-oxa-4-aza-5 (2,1)-benzo[d]imidazole-2 (2,4)-pyridine-1 (4,5)-pyrazolecyclododecan-5^6-yl)methyl)piperazin-1-yl)pentyl)isoindol-2-yl)piperidine-2,6-dione]	–	–
–	–	–	–	–	3-(1-oxo-4-(4-(4-(((R,E)-1^1,2^6,7-trimethyl-3-oxo-5^2,5^3-dihydro-1^1H,5^1H-11-oxa-4-aza-5 (2,1)-benzo[d]imidazole-2 (2,4)-pyridine-1 (4,5)-pyrazolecyclododecan-5^6-yl)methyl)piperazin-1-yl)butyl)isoindol-2-yl)piperidine-2,6-dione [Compound D1]	2.7	2.12

Compound	IC50 (EGFR^L858R/T790M/C797S [1]) [nM]	IC50 ([2]; Ba/F3 EGFR-Del19/T790M/C797S) [nM]	IC50 ([3]; Mus musculus, BaF3) [nM]	effect on EGFR^L858R/T790M/C797S protein level (in words) (EGFR^L858R/T790M/C797S [4]; 6 h, dose-dependent)	DC50 (EGFR^L858R/T790M/C797S [4]; 6 h treatment, 0.01 nM to 1000 nM, read-out: DC50 (EGFR^L858R/T790M/C797S protein level)) [nM]	IC50 [2] [nM]	IC50 [3] [nM]
Cc1cc2cc(n1)-c1cnn(C)c1OCCC[C@@H](C)CN1/C(=N/C2=O)Cc2ccc(CN3CCN(CCCCCCc4cccc5c4CN(C4CCC(=O)NC4=O)C5=O)CC3)cc21 (stereo partly drawn) [Compound D4, 3-(1-oxo-4-(6-(4-(((R,E)-1^1,2^6,7-trimethyl-3-oxo-5^2,5^3-dihydro-1^1H,5^1H-11-oxa-4-aza-5 (2,1)-benzo[d]imidazole-2 (2,4)-pyridine-1 (4,5)-pyrazolecyclododecan-5^6-yl)methyl)piperazin-1-yl)hexyl)isoindol-2-yl)piperidine-2,6-dione]	10.1	–	–	–	–	4.41	4.39
C=CC(=O)Nc1cc(Nc2nccc(-c3cn(C)c4ccccc34)n2)c(OC)cc1N(C)CCN(C)C [Osimertinib, reference compound]	–	> 1000	> 1000	–	–	–	–
